Laboratory results reported in article PMC5430407 (ACS Medicinal Chemistry Letters, 2017).

How the values were obtained:
IDO1 in HeLa cells = IDO1 in HeLa cells (Homo sapiens, UniProt P14902); assay: HeLa cell-based IDO1/kynurenine assay; conditions: calculated using HeLa pIC50; for LLE (lipophilic ligand efficiency): LLE = pIC50 – cLogP
Caco-2 cells = assay: Caco-2 permeability; type: in vitro ADME; conditions: A-B, 50 µM, 120 min
[1] = test system: CEREP panel of over 50 receptors and enzymes; assay: CEREP panel
[2] = Allometric scaling, predicted human dose; conditions: allometric scaling to cover the WB IC50 at trough
CT26 tumor = CT26 tumor growth in immune-compromised mice; type: in vivo, mouse; conditions: immune-compromised mice (nu/nu)
plasma kynurenine = assay: PK/PD study in mice, plasma kynurenine; type: in vivo, mouse; conditions: wild-type mice, once daily oral dosing at 50 mg/kg
[3] = 28-day IND toxicology study in mice; type: in vivo, mouse
[4] = 28-day IND toxicology study in dogs; type: in vivo, dog

IDO1 in HeLa cells, sequence (P14902 whole entry): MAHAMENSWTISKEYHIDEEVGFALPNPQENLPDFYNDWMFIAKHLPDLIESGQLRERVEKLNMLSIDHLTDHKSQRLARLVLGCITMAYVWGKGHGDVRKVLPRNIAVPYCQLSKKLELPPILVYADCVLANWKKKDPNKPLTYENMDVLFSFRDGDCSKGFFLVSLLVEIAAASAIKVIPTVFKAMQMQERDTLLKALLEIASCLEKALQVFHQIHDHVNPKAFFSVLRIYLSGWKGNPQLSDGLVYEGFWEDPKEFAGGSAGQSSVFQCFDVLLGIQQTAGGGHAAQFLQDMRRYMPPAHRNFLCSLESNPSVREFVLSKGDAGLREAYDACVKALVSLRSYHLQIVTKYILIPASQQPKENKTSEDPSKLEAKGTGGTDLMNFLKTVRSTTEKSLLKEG

Compound	LE (ligand efficiency) (IDO1 in HeLa cells)	Caco2 Pm (Caco-2 cells)	also measured
CC(=O)NCCNc1nonc1/C(=N/O)Nc1ccc(F)c(Br)c1 [Compound 4d]	0.45	19 × (10)^−6 cm/s	
CS(=O)(=O)NCCNc1nonc1C(=NO)Nc1ccc(F)c(Br)c1 [Compound 4e]			LLE (lipophilic ligand efficiency) (IDO1 in HeLa cells): 5.8
NS(=O)(=O)NCCNc1nonc1C(=NO)Nc1ccc(F)c(Br)c1 [Compound 4f, epacadostat]			in vitro toxicology result, CEREP panel [1]: clean; predicted oral dosing in humans [2]: 50 mg twice-a-day; tumor growth inhibition, treated vs control animals (CT26 tumor): no difference; plasma kynurenine level reached (basal level of IDO null mice) (plasma kynurenine): ~400 nM; tolerability [3]: well-tolerated; tolerability [4]: well-tolerated
NS(=O)(=O)NCCNc1nonc1C(=NO)Nc1ccc(F)c(Cl)c1 [Compound 4g]		4.3 × (10)^−6 cm/s	

Second part, led by results:

LE (ligand efficiency) (IDO1 in HeLa cells)	Caco2 Pm (Caco-2 cells)	Compound	also measured
0.45	44 × (10)^−6 cm/s	COCCNc1nonc1/C(=N/O)Nc1ccc(F)c(Br)c1 [Compound 4a]	
0.51	31 × (10)^−6 cm/s	OCCNc1nonc1/C(=N/O)Nc1ccc(F)c(Br)c1 [Compound 4b]	LLE (lipophilic ligand efficiency) (IDO1 in HeLa cells): 5.8
0.47	1.8 × (10)^−6 cm/s	NCCNc1nonc1/C(=N/O)Nc1ccc(F)c(Br)c1 [Compound 4c]	
